Experiments:
γ-secretase = biological target: T1, γ-secretase (Homo sapiens, UniProt P49768); test: Cell based γ-secretase assay (Aβ42 in conditioned media, MSD sandwich immunoassay); settings: HEK 293 cells stably transfected with APPsw-lon; 5 hrs treatment; means of two independent experiments
T1 construct: Human embryonic kidney (HEK) 293 cells stably transfected with APPsw-lon in pcDNA3.1 vector; endogenous in cells; host or cells: HEK293 cells stably transfected with APPsw-lon (substrate only) in pcDNA3.1
Procedure: Cell Based γ-Secretase Assay (In Vitro Assay Method)
Human embryonic kidney (HEK) 293 cells stably transfected with APPsw-lon in pcDNA3.1 vector (Invitrogen) were treated with gamma secretase modulator (GSM) compounds (see Table below) for 5 hrs. Aβ in conditioned media was measured using MesoScale Discovery (MSD) technology based sandwich immunoassays. Aβ42 was measured using a pair of labeled antibodies TAG-G2-11 (described in Ida, N. et al., Journal of Biological Chemistry, 1996, 271, p. 22908-22914) and biotin-4G8 (Covance); γ-secretase activity is expressed as the concentration of compound producing 50% inhibition of the enzyme activity. The data presented below in the Table were the means of two independent experiments.

Rat CSF Aβ42 = test: Cerebrospinal fluid (CSF) Aβ analysis (in vivo assay method); settings: male CD rats; oral, 30 mg/kg in 20% hydroxypropyl β-cyclodextrin; CSF collected three hours after dosing
Procedure: Cerebrospinal Fluid (CSF) Aβ Analysis (In Vivo Assay Method)
Male CD rats (100 g; Charles River Laboratories) were orally administered a GSM compound (formulated in 20% hydroxypropyl β-cyclodextin; 5 ml/kg). Three hours later, the animals were euthanized with excess CO2, and CSF was immediately collected from the cisterna magna and frozen on dry ice; only clear samples were analyzed. Rat CSF Aβ42 was analyzed using AlphaLISA Amyloid Assay kits (Perkin-Elmer) according to the manufacturer's instructions. In vivo activity of the tested GSM compounds is expressed as the percentage of Aβ42 reduction in CSF after administration of the compound and is presented in the Table.

CNC1CCCc2c(-c3ccc(-n4cnc(C)c4)c(OC)c3)noc21 (racemic)
IC50 (γ-secretase): 12200 nM

COc1cc(-c2noc3c2CCCC3(O)c2cc(F)cc(F)c2)ccc1-n1cnc(C)c1 (racemic) [7-(3,5-Difluorophenyl)-3-(3-methoxy-4-(4-methyl-1H-imidazol-1-yl)phenyl)-4,5,6,7-tetrahydrobenzo[d]isoxazol-7-ol]
IC50 (γ-secretase): 189 nM | % CSF Aβ42 Reduction After 30 mg/kg Dosing (Rat CSF Aβ42): 19%

COc1cc(-c2noc3c2CCCC3NCc2cc(F)cc(F)c2)ccc1-n1cnc(C)c1 (single isomer, unassigned) [drawing 33]
IC50 (γ-secretase): 644 nM | % CSF Aβ42 Reduction After 30 mg/kg Dosing (Rat CSF Aβ42): 7%

COc1cc(-c2noc3c2CCCC3NCC(F)(F)F)ccc1-n1cnc(C)c1 (racemic)
IC50 (γ-secretase): 464 nM

COc1cc(-c2noc3c2CCCC3Oc2cc(F)cc(F)c2)ccc1-n1cnc(C)c1 (racemic)
IC50 (γ-secretase): 205 nM

COc1cc(-c2noc3c2CCCC3c2cc(F)cc(F)c2)ccc1-n1cnc(C)c1 (racemic) [7-(3,5-Difluorophenyl)-3-(3-methoxy-4-(4-methyl-1H-imidazol-1-yl)phenyl)-4,5,6,7-tetrahydrobenzo[d]isoxazole]
IC50 (γ-secretase): 113 nM | % CSF Aβ42 Reduction After 30 mg/kg Dosing (Rat CSF Aβ42): 0%

COc1cc(-c2noc3c2CCCC3Nc2ccc(F)cc2)ccc1-n1cnc(C)c1 (single isomer, unassigned) [drawing 26, N-(4-Fluorophenyl)-3-(3-methoxy-4-(4-methyl-1H-imidazol-1-yl)phenyl)-4,5,6,7-tetrahydrobenzo[d]isoxazol-7-amine]
IC50 (γ-secretase): 403 nM | % CSF Aβ42 Reduction After 30 mg/kg Dosing (Rat CSF Aβ42): 37%

COc1cc(-c2noc3c2CCCC3NCc2cc(F)cc(F)c2)ccc1-n1cnc(C)c1 (single isomer, unassigned) [drawing 34]
IC50 (γ-secretase): 29.4 nM | % CSF Aβ42 Reduction After 30 mg/kg Dosing (Rat CSF Aβ42): 20%

COc1cc(-c2noc3c2CCCC3NCc2ccc(F)cc2)ccc1-n1cnc(C)c1 (racemic)
IC50 (γ-secretase): 131 nM

COc1cc(-c2noc3c2CCCC3N(C)Cc2ccc(F)cc2)ccc1-n1cnc(C)c1 (racemic)
IC50 (γ-secretase): 319 nM

COc1cc(-c2noc3c2CCCC3N[C@H](C)c2ccc(F)cc2)ccc1-n1cnc(C)c1 (mixture of isomers)
IC50 (γ-secretase): 255 nM

COc1cc(-c2noc3c2CCCC3Oc2ccc(F)cc2)ccc1-n1cnc(C)c1 (racemic) [7-(4-Fluorophenoxy)-3-(3-methoxy-4-(4-methyl-1H-imidazol-1-yl)phenyl)-4,5,6,7-tetrahydrobenzo[d]isoxazole]
IC50 (γ-secretase): 295 nM

COc1cc(-c2noc3c2CCCC3Nc2ccc(F)cc2)ccc1-n1cnc(C)c1 (single isomer, unassigned) [drawing 25, N-(4-Fluorophenyl)-3-(3-methoxy-4-(4-methyl-1H-imidazol-1-yl)phenyl)-4,5,6,7-tetrahydrobenzo[d]isoxazol-7-amine]
IC50 (γ-secretase): 39.4 nM | % CSF Aβ42 Reduction After 30 mg/kg Dosing (Rat CSF Aβ42): 58%

COc1cc(-c2noc3c2CCCC3(O)Cc2cc(F)cc(F)c2)ccc1-n1cnc(C)c1 (racemic)
IC50 (γ-secretase): 150 nM

COc1cc(-c2noc3c2CCCC3NC2CCCCC2)ccc1-n1cnc(C)c1 (racemic)
IC50 (γ-secretase): 311 nM

COc1cc(-c2noc3c2CCCC3OCc2cc(F)cc(F)c2)ccc1-n1cnc(C)c1 (racemic) [7-(3,5-Difluorobenzyloxy)-3-(3-methoxy-4-(4-methyl-1H-imidazol-1-yl)phenyl)-4,5,6,7-tetrahydrobenzo[d]isoxazole]
IC50 (γ-secretase): 514 nM
